Reference: US20220387430A1, “USE OF COMPOUND IN PREVENTING OR TREATING GRAFT VERSUS HOST DISEASE” (SHENZHEN CHIPSCREEN BIOSCIENCES, CO., LTD., priority 2019, published 2022)

System: GVHD model mice (BALB/c receptor mice, C57BL/6 donor mice)
Assay: GVHD model induced by mouse allogeneic bone marrow transplantation
Assay type: in vivo
Details: for survival rate at 61 days: 61 days after allogeneic bone marrow transplantation
From the text: This study evaluates a pharmacodynamics effect of a test drug CS12192 in a GVHD model induced by mouse allogeneic bone marrow transplantation. In the GVHD model, 6-8 week old of two types of C57BL/6 (H-2b) and BALB/c (H-2d) male mice are used as donor and receptor animals respectively. Wherein, C57BL/6 mice are the donor mice, and BALB/c mice are the receptor mice.
The receptor mice are sent to an irradiation center to receive 8.5 Gry systemic irradiation on the day before transplantation, and after the irradiation, the mice are randomly divided into groups according to the body weights of the mice. On day 0, after 3-5% isoflurane pre-anesthesia, the donor mice are killed by cervical dislocation, and spleens are excised in a sterile environment, ground, and filtered by a sterile filter. Then red blood cells are digested with ammonium chloride buffer solution, lymphocytes are washed twice with RPMI 1640 culture solution, and finally resuspended in RPMI 1640 culture solution containing 10% fetal bovine serum, to prepare a lymphocyte suspension.
The receptor mice are divided into 6 groups, and each group includes 10 mice.

SMILES: C[C@]12C=CC(=O)C=C1CC[C@@H]1[C@@H]2[C@@H](O)C[C@@]2(C)[C@H]1CC[C@]2(O)C(=O)CO [prednisolone, reference compound]
- survival rate at 61 days (prednisolone 20 mg/kg once a day, p<0.01 relative to the vehicle control): 67%

SMILES: C=CC(=O)N(C)c1cc(Nc2ncc(Cl)c(NCCCNC(=O)c3ccc(C#N)cc3)n2)ccc1F [CS12192]
- survival rate at 61 days (CS12192 40 mg/kg twice a day, p<0.0005 relative to the vehicle control): 89%
- survival rate at 61 days (CS12192 80 mg/kg twice a day, p<0.0001 relative to the vehicle control): 100%
- weight gains of the mice (CS12192 two-dose groups (40 and 80 mg/kg twice a day) versus positive drug prednisolone group and solvent control group (FIG. 2)): significantly better than that of the positive drug prednisolone group
